# Measured values from article PMC9500755, “Albumin-Mediated Size Exclusion Chromatography: The Apparent Molecular Weight of PSMA Radioligands as Novel Parameter to Estimate Their Blood Clearance Kinetics” (Pharmaceuticals, 2022).
# Tests used:
# [1] = Calculated glomerular sieving coefficients (GSCcalc) from MWapp,norm.; details: from MWapp,norm. via sigmoidal fit of MW vs GSC of 12 human plasma proteins
# Excerpt: Therefore, when comparing the MWapp,norm. of different radioligands, not only their relative difference but also the absolute values of MWapp,norm. are of importance. […] These GSCcalc determined for all the PSMA radioligands (Table 2, Figure 5) inherently account for the exponential nature of the relationship between their albumin-mediated MWapp,norm. and MW-dependent GF and could, therefore, be a useful parameter to estimate differences in blood clearance by means of GF. The GSC is defined as the ratio of a compound’s concentration in the glomerular filtrate to that in the blood; thus, a GSC of 1 represents unhindered filtration through the capillary membrane in the glomerulus, while a lower GSC corresponds to a restricted filtration and, thus, a prolonged circulatory half-life. […] As an example, a GSCcalc of 0.408 was determined for rhPSMA-7.3, while an almost three-fold smaller GSCcalc of 0.138 was determined for rhPSMA-7.4. […] This would constitute a dramatic physiological effect that, in its extent, could not be predicted only based on subtle differences in molecular structure and other conventionally determined in vitro parameters. We, therefore, believe that the MWapp,norm. and GSCcalc obtained by AMSEC could be important parameters that, already at the preclinical stage of development, could help in the selection of promising therapeutic radioligands with pharmacokinetic profiles suitable for patient application.
# A sigmoidal fit of molecular weights (MWs, in kDa) and corresponding glomerular sieving coefficients (GSCs) of 12 human plasma proteins (data taken from Norden et al.) was executed using OriginPro software. A dose-response model based on Equation (6) was applied:(6) GSC=A1+A2−A1/1+10^(LOGx0−MW)·p.
# The values of bottom asymptote A1 and top asymptote A2 were set to 4.2∙10^−5 (GSC of IgG, data taken from Norden et al.) and 1 (equaling complete sieving), respectively. Curve fitting gave the center parameter LOGx0 = 19.36833 and the Hill slope p = −0.12108. GSCcalc values were calculated via implementation of fitting parameters and the experimentally determined MWapp,norm. in Equation (6).
# [2] = biological target: T1, human serum albumin (HSA) (Homo sapiens, UniProt P02768); assay: Albumin-mediated size exclusion chromatography (AMSEC); type: in vitro ADME; details: for tR,AMSEC (retention time in AMSEC run): 177Lu-labeled ligand, mobile phase 700 µM HSA in PBS pH 7.4, Superdex 75 Increase, corrected for detector offset, normalized to column 1; for Retention factor k: fraction of time the radioligand is complexed to HSA during the AMSEC run, Equation (2); for MWapp,raw (raw apparent molecular weight): from tR,AMSEC by column calibration, 700 µM HSA in PBS pH 7.4; for MWapp,norm. (normalized apparent molecular weight): from tR,norm. by column calibration; for tR,norm. (normalized retention time): normalized with tR,blank, tR,HSA and tR,acetone, Equation (5)
# T1 construct: purchased Biowest, Nuaillé, France
# Protocol: All size exclusion chromatographic (SEC) experiments were carried out using the above-mentioned HPLC system equipped with a Superdex 75 Increase 10/300 GL gel filtration size exclusion column (fractionation range 70–3 kDa, GE Healthcare, Uppsala, Sweden). Eluents at room temperature, a constant flow rate of 0.8 mL/min, and an acquisition time of 35 min were generally applied. The column was calibrated as recommended by the manufacturer using a commercially available set of proteins (Gel Filtration LMW Calibration Kit, GE Healthcare, Buckinghamshire, UK). Retention times of calibration proteins and calculated calibration parameters are given in the Supplementary Materials (Table S3). UV signal detection occurred at 280 nm.
# All retention times of radio signals were corrected for the offset between the UV-vis detector and radio-detector (Δt = 0.084 min). Throughout the development of the AMSEC method, three gel filtration columns of the same type were used for experiments (most data were acquired using column 1). As calculations were based on absolute empirical retention times that inherently differed slightly from column to column, all retention times determined on column 2 and column 3 were mathematically converted to an equivalent retention time on column 1 using the columns’ calibration parameters. A detailed description of these calculations is provided in the Supplementary Materials.
# All numerical retention times explicitly given in running text or tables and plotted in diagrams are already corrected for the offset between UV-vis and radio-detector and, if initially determined on columns 2 or 3, converted to the equivalent retention time on column 1 (for detailed information, see Equations (S1) and (S2) and Table S1 in the Supplementary Materials).
# AMSEC runs were executed with a solution of HSA (Biowest, Nuaillé, France) in PBS (pH 7.4) at physiological concentration (700 µM) as a mobile phase. Upon injection of approximately 1.0 MBq (5–10 µL) of a radioligand, the elution profile was monitored via radioactivity detection, and the retention times of observed radiopeaks (tR,AMSEC) were determined via semi-automated peak integration. By means of calibration, retention times were translated into a ligand-specific raw apparent molecular weight (MWapp,raw) as a parameter to assess the extent of HSA binding (for calculation, see Equation (S6) in the Supplementary Materials). rhPSMA-7.3 served as an internal standard during AMSEC studies and was co-evaluated whenever new data were collected to assess the reproducibility of the method (n = 14).
# For reference purposes, conventional SEC runs of HSA (100 µL, 3 mg/mL) and acetone (100 µL, 2% in PBS pH 7.4) with PBS (pH 7.4) as a mobile phase were executed. The retention time of HSA (tR,HSA) corresponded to the maximal MWapp,raw, theoretically observable in AMSEC runs in the case of continuous binding of a radioligand to HSA (equivalent to 100% HSA binding). The retention time of acetone (tR,acetone) served as a reference for a ligand with no interaction with HSA in AMSEC runs (equivalent to 0% HSA binding) and an actual physical molecular weight below the column fractionation range (this was the case for all investigated radioligands).
# MWapp,raw values determined as described in Section 3.3.1. were normalized in order to account for ligand-specific influences on experimentally determined retention times and to establish quantitative comparability of the obtained MWapp,norm. values. The normalization was based on a SEC run (referred to as blank run) of a radioligand executed in analogy to the AMSEC run but using PBS (pH 7.4) without HSA as a mobile phase. The determined retention time tR,blank, together with the retention time tR,AMSEC from the AMSEC run, tR,HSA, and tR,acetone determined in Section 3.3.1, were used to calculate a normalized retention time tR,norm. for every radioligand (for formulae and details on the calculation, see Section 2. Results and Discussion). […]
# [3] = design: method as in PMID 26985056; details: 177Lu-labeled; cited from earlier work
# [4] = design: method as in PMID 30105912, PMID 29684274; details: 177Lu-labeled, mice; cited from earlier work
# [5] = design: method as in PMID 35086894; details: head-to-head with four isomers of rhPSMA-7 and rhPSMA-10.2; cited from earlier work
# T1 sequence (P02768 25-609): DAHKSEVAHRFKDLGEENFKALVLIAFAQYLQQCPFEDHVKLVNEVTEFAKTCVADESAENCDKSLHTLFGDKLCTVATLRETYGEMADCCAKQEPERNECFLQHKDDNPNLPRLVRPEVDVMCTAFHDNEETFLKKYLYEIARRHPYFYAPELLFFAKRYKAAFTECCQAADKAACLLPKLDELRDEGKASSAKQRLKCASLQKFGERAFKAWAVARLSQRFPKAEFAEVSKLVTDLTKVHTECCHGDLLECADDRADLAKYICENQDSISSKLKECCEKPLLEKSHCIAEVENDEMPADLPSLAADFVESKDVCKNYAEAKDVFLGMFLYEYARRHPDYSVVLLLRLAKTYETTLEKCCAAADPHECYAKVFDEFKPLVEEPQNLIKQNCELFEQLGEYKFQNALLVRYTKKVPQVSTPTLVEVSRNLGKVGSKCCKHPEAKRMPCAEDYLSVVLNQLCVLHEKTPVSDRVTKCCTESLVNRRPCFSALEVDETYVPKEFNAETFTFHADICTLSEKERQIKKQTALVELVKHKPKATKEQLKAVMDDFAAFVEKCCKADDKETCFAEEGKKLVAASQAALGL
Compound,GSCcalc (calculated glomerular sieving coefficient) [1],"tR,AMSEC (retention time in AMSEC run) [2]",Retention factor k [2],"MWapp,raw (raw apparent molecular weight) [2]","MWapp,norm. (normalized apparent molecular weight) [2]","tR,norm. (normalized retention time) [2]",blood clearance [3],therapeutic efficacy compared to PSMA-617 [4],blood clearance in mice [5],"MWapp,norm. higher than that of the stereoisomer ([2]; rhPSMA-7.2 vs rhPSMA-7.1, rhPSMA-10.1 vs rhPSMA-10.2)"
"O=C(O)CC[C@H](NC(=O)N[C@@H](CCCCNC(=O)[C@H](Cc1ccc2ccccc2c1)NC(=O)[C@H]1CC[C@H](CNC(=O)CN2CCN(CC(=O)O)CCN(CC(=O)O)CCN(CC(=O)O)CC2)CC1)C(=O)O)C(=O)O (177Lu complex, metal not drawn) [PSMA-617, reference compound]",0.942,17.586 min,0.447,13.8 kDa,9.4 kDa,18.988 min,"rapid, bi-phasic blood clearance",,,
"Cc1ccc(CCCC(=O)NCCCC[C@H](NC(=O)CN2CCN(CC(=O)O)CCN(CC(=O)O)CCN(CC(=O)O)CC2)C(=O)NCC2CCC(C(=O)N[C@@H](Cc3ccc4ccccc4c3)C(=O)NCCCC[C@H](NC(=O)N[C@@H](CCC(=O)O)C(=O)O)C(=O)O)CC2)cc1 (stereo partly shown) (177Lu complex, metal not drawn) [PSMA-ALB-56]",,,,,,,,superior therapeutic efficacy,,
CC(C)(C)[Si](F)(c1ccc(C(=O)NC[C@@H](NC(=O)CN2CCN(CC(=O)[O-])CCN(CC(=O)[O-])CCN(CC(=O)[O-])CC2)C(=O)N[C@H](CCCCNC(=O)CCC(=O)NCCC[C@@H](NC(=O)CC[C@H](NC(=O)N[C@@H](CCC(=O)O)C(=O)O)C(=O)O)C(=O)O)C(=O)O)cc1)C(C)(C)C.[177Lu+3] [rhPSMA-10.1],0.644,15.410 min,0.616,25.3 kDa,17.2 kDa,16.789 min,,,fast blood clearance,30%
